Data: article PMC5218480 (PLoS ONE, 2017)

Tested on: MV-4-11 cells
Test: Gene expression microarray analysis (Affymetrix PrimeView) and GSEA
Type: cell-based, human
Design: RFU PODN (11730768_x_at) / Fold change /veh PODN (11730768_x_at) / RFU LINC00158 (11744669_a_at) / Fold change /veh LINC00158 (11744669_a_at) / RFU DUSP10 (11751237_a_at) / Fold change /veh DUSP10 (11751237_a_at) / RFU ID3 (11757404_x_at) / Fold change /veh ID3 (11757404_x_at) / RFU PLEKHG5 (11737974_s_at) / Fold change /veh PLEKHG5 (11737974_s_at) / RFU LRRC4B (11730491_at) / Fold change /veh LRRC4B (11730491_at) / RFU GIMAP4 (11747438_a_at) / Fold change /veh GIMAP4 (11747438_a_at) / RFU KRT8 (11758183_x_at) / Fold change /veh KRT8 (11758183_x_at) / RFU CNN1 (11734310_a_at) / Fold change /veh CNN1 (11734310_a_at) / RFU VPS37D (11726825_at) / Fold change /veh VPS37D (11726825_at) / RFU C10orf10 (11716522_x_at) / Fold change /veh C10orf10 (11716522_x_at) / RFU KIR2DL2 /// KIR2DL4 /// KIR2DL5A /// KIR2DL5B /// KIR2DS1 /// KIR2DS2 /// KIR2DS3 /// KIR2DS4 /// KIR3DL3 /// KIR3DL3 /// KIR3DS1 (11738374_at) / Fold change /veh KIR2DL2 /// KIR2DL4 /// KIR2DL5A /// KIR2DL5B /// KIR2DS1 /// KIR2DS2 /// KIR2DS3 /// KIR2DS4 /// KIR3DL3 /// KIR3DL3 /// KIR3DS1 (11738374_at) / RFU C1QL1 (11718748_at) / Fold change /veh C1QL1 (11718748_at) / RFU TMPRSS4 (11747572_a_at) / Fold change /veh TMPRSS4 (11747572_a_at) / RFU HAMP (11756126_x_at) / Fold change /veh HAMP (11756126_x_at) / RFU RNFT2 (11725882_a_at) / Fold change /veh RNFT2 (11725882_a_at) / RFU NR4A2 (11747474_a_at) / Fold change /veh NR4A2 (11747474_a_at) / RFU ABCC12 (11746883_a_at) / Fold change /veh ABCC12 (11746883_a_at) / RFU TMEM136 (11760407_x_at) / Fold change /veh TMEM136 (11760407_x_at) / RFU CLDN22 /// WWC2 (11732394_at) / Fold change /veh CLDN22 /// WWC2 (11732394_at) / RFU HLA-DPB1 (11760878_x_at) / Fold change /veh HLA-DPB1 (11760878_x_at) / RFU SPINT1 (11716480_a_at) / Fold change /veh SPINT1 (11716480_a_at) / RFU GAP43 (11754022_s_at) / Fold change /veh GAP43 (11754022_s_at) / RFU A4GNT (11735810_at) / Fold change /veh A4GNT (11735810_at) / RFU PRB3 (11715151_x_at) / Fold change /veh PRB3 (11715151_x_at) / RFU TUBB4B (11761932_at) / Fold change /veh TUBB4B (11761932_at) / RFU CAPN14 (11732068_a_at) / Fold change /veh CAPN14 (11732068_a_at) / RFU TMCC2 (11721928_a_at) / Fold change /veh TMCC2 (11721928_a_at) / RFU IRGQ (11745062_a_at) / Fold change /veh IRGQ (11745062_a_at) / RFU FAM174B (11720279_a_at) / Fold change /veh FAM174B (11720279_a_at) / RFU TMPRSS4 (11748680_a_at) / Fold change /veh TMPRSS4 (11748680_a_at) / RFU FAM212B (11763350_a_at) / Fold change /veh FAM212B (11763350_a_at) / RFU PLEKHG5 (11743358_a_at) / Fold change /veh PLEKHG5 (11743358_a_at) / RFU ZSCAN30 (11745921_a_at) / Fold change /veh ZSCAN30 (11745921_a_at) / RFU CMKLR1 (11741424_a_at) / Fold change /veh CMKLR1 (11741424_a_at) / RFU LOC101060620 /// MAPK8IP1 (11723275_at) / Fold change /veh LOC101060620 /// MAPK8IP1 (11723275_at) / RFU SPTSSB (11747773_x_at) / Fold change /veh SPTSSB (11747773_x_at) / RFU PRSS12 (11739890_at) / Fold change /veh PRSS12 (11739890_at) / RFU BIN1 (11741810_x_at) / Fold change /veh BIN1 (11741810_x_at) / RFU WNT11 (11732464_a_at) / Fold change /veh WNT11 (11732464_a_at) / RFU C10orf10 (11716521_a_at) / Fold change /veh C10orf10 (11716521_a_at) / RFU C5orf56 (11738089_at) / Fold change /veh C5orf56 (11738089_at) / RFU CYB561 (11721691_x_at) / Fold change /veh CYB561 (11721691_x_at) / RFU ANKRD19P (11752326_a_at) / Fold change /veh ANKRD19P (11752326_a_at) / RFU OR2T12 /// OR2T33 /// OR2T8 (11738714_s_at) / Fold change /veh OR2T12 /// OR2T33 /// OR2T8 (11738714_s_at) / RFU VCAN (11748164_a_at) / Fold change /veh VCAN (11748164_a_at) / RFU JSRP1 (11732532_at) / Fold change /veh JSRP1 (11732532_at) / RFU KRTAP10-11 (11738290_x_at) / Fold change /veh KRTAP10-11 (11738290_x_at) / RFU MYO3A (11730013_a_at) / Fold change /veh MYO3A (11730013_a_at) / RFU EBF3 (11725865_a_at) / Fold change /veh EBF3 (11725865_a_at) / RFU CAMK2N1 (11719241_x_at) / Fold change /veh CAMK2N1 (11719241_x_at) / RFU C5orf56 (11738088_a_at) / Fold change /veh C5orf56 (11738088_a_at) / RFU OLFML3 (11715873_a_at) / Fold change /veh OLFML3 (11715873_a_at) / RFU LOC100653217 /// NTM (11731650_a_at) / Fold change /veh LOC100653217 /// NTM (11731650_a_at) / RFU MAPK11 (11762145_a_at) / Fold change /veh MAPK11 (11762145_a_at) / RFU FIZ1 (11724087_x_at) / Fold change /veh FIZ1 (11724087_x_at) / RFU OASL (11726364_x_at) / Fold change /veh OASL (11726364_x_at) / RFU SOX15 (11748057_x_at) / Fold change /veh SOX15 (11748057_x_at) / RFU CD79A (11719716_a_at) / Fold change /veh CD79A (11719716_a_at) / RFU HIST1H1D (11736915_at) / Fold change /veh HIST1H1D (11736915_at) / RFU CASKIN2 (11723855_a_at) / Fold change /veh CASKIN2 (11723855_a_at) / RFU LOC730098 (11760151_x_at) / Fold change /veh LOC730098 (11760151_x_at) / RFU OR4N2 (11742367_at) / Fold change /veh OR4N2 (11742367_at) / RFU PRRT2 (11749266_a_at) / Fold change /veh PRRT2 (11749266_a_at) / RFU SNX32 (11753110_a_at) / Fold change /veh SNX32 (11753110_a_at) / RFU CDHR5 (11726645_a_at) / Fold change /veh CDHR5 (11726645_a_at) / RFU RCAN1 (11760418_a_at) / Fold change /veh RCAN1 (11760418_a_at) / RFU FAM167A (11723789_a_at) / Fold change /veh FAM167A (11723789_a_at) / RFU FAM26E (11764081_at) / Fold change /veh FAM26E (11764081_at) / RFU ISYNA1 (11749810_s_at) / Fold change /veh ISYNA1 (11749810_s_at) / RFU ACY1 (11761880_at) / Fold change /veh ACY1 (11761880_at) / RFU 11764098_at / Fold change /veh 11764098_at / RFU SAMD14 (11745864_x_at) / Fold change /veh SAMD14 (11745864_x_at) / RFU NPB (11741838_a_at) / Fold change /veh NPB (11741838_a_at) / RFU TMPRSS6 (11731388_a_at) / Fold change /veh TMPRSS6 (11731388_a_at) / RFU KRTAP10-2 (11738614_at) / Fold change /veh KRTAP10-2 (11738614_at) / RFU ARHGAP8 /// PRR5-ARHGAP8 (11727945_x_at) / Fold change /veh ARHGAP8 /// PRR5-ARHGAP8 (11727945_x_at) / RFU KRTAP5-7 /// NADSYN1 (11734609_at) / Fold change /veh KRTAP5-7 /// NADSYN1 (11734609_at) / RFU RASL12 (11751679_a_at) / Fold change /veh RASL12 (11751679_a_at) / RFU CDKN2B (11736163_a_at) / Fold change /veh CDKN2B (11736163_a_at) / RFU PRF1 (11729649_at) / Fold change /veh PRF1 (11729649_at) / RFU, ZNF638 /// ZNF638-IT1 / Fold change vs veh, ZNF638 /// ZNF638-IT1 / RFU, PANK3 / Fold change vs veh, PANK3 / RFU, SH3YL1 / Fold change vs veh, SH3YL1 / RFU, ZEB2 / Fold change vs veh, ZEB2 / RFU, NRIP1 / Fold change vs veh, NRIP1 / RFU, PTTG1IP / Fold change vs veh, PTTG1IP / RFU, CAPN2 / Fold change vs veh, CAPN2 / RFU, MED14 / Fold change vs veh, MED14 / RFU, SNORA58 / Fold change vs veh, SNORA58 / RFU, C1orf63 / Fold change vs veh, C1orf63 / RFU, LRRFIP1 / Fold change vs veh, LRRFIP1 / RFU, NDUFAF7 / Fold change vs veh, NDUFAF7 / RFU, SLC12A2 / Fold change vs veh, SLC12A2 / RFU, IBTK / Fold change vs veh, IBTK / RFU, ESF1 / Fold change vs veh, ESF1 / Fold change vs veh, TMEM50B / RFU, TAOK1 / Fold change vs veh, TAOK1 / RFU, ACBD3 / Fold change vs veh, ACBD3 / RFU, TMA16 / Fold change vs veh, TMA16 / RFU, RWDD3 / Fold change vs veh, RWDD3 / RFU, BCAT1 / Fold change vs veh, BCAT1 / RFU, EDEM3 / Fold change vs veh, EDEM3 / RFU, TMEM33 / Fold change vs veh, TMEM33 / RFU, WDR75 / Fold change vs veh, WDR75 / RFU, AHCTF1 / Fold change vs veh, AHCTF1 / RFU, TFRC / Fold change vs veh, TFRC / RFU, ZDHHC17 / Fold change vs veh, ZDHHC17 / RFU, NOM1 / Fold change vs veh, NOM1 / RFU, ARL8B / Fold change vs veh, ARL8B / RFU, ZBTB11 / Fold change vs veh, ZBTB11 / RFU, TAMM41 / Fold change vs veh, TAMM41 / RFU, KIAA1704 /// LOC100996395 / Fold change vs veh, KIAA1704 /// LOC100996395 / RFU, ING1 / Fold change vs veh, ING1 / RFU, TRMT61B / Fold change vs veh, TRMT61B / RFU, FUBP3 / Fold change vs veh, FUBP3 / RFU, TP53 / Fold change vs veh, TP53 / RFU, TNKS2 / Fold change vs veh, TNKS2 / RFU, ZFP14 / Fold change vs veh, ZFP14 / RFU, ACTR2 / Fold change vs veh, ACTR2 / RFU, PPP3R1 / Fold change vs veh, PPP3R1 / RFU, PIK3R1 / Fold change vs veh, PIK3R1 / RFU, HNRNPA1 / Fold change vs veh, HNRNPA1 / RFU, RNF170 / Fold change vs veh, RNF170 / RFU, ZNF28 / Fold change vs veh, ZNF28 / RFU, RNGTT / Fold change vs veh, RNGTT / RFU, OGT / Fold change vs veh, OGT / RFU, BRD1 / Fold change vs veh, BRD1 / RFU, MARS / Fold change vs veh, MARS / RFU, ZNF655 / Fold change vs veh, ZNF655 / RFU, FAHD1 / Fold change vs veh, FAHD1 / RFU, BDP1 / Fold change vs veh, BDP1 / RFU, LRRCC1 / Fold change vs veh, LRRCC1 / RFU, ARID1A / Fold change vs veh, ARID1A / RFU, ZNF146 / Fold change vs veh, ZNF146 / RFU, ZNF330 / Fold change vs veh, ZNF330 / RFU, GPN3 / Fold change vs veh, GPN3 / RFU, C9orf123 / Fold change vs veh, C9orf123 / RFU, N4BP2L2 / Fold change vs veh, N4BP2L2 / RFU, ARFIP1 / Fold change vs veh, ARFIP1 / RFU, FAM179B / Fold change vs veh, FAM179B / RFU, BCL10 / Fold change vs veh, BCL10 / RFU, UHRF1BP1L / Fold change vs veh, UHRF1BP1L / RFU, BET1 / Fold change vs veh, BET1 / RFU, CNOT2 / Fold change vs veh, CNOT2 / RFU, ZNF268 / Fold change vs veh, ZNF268 / Fold change vs veh, ZNF507 / RFU, DGCR2 / Fold change vs veh, DGCR2 / RFU, WDSUB1 / Fold change vs veh, WDSUB1 / Fold change vs veh, HSP90B1 /// MIR3652 / RFU, ADSS / Fold change vs veh, ADSS / RFU, GK / Fold change vs veh, GK / RFU, ZNF148 / Fold change vs veh, ZNF148 / RFU, TAF9 / Fold change vs veh, TAF9 / RFU, SLC1A5 / Fold change vs veh, SLC1A5 / RFU, SLMO2 / Fold change vs veh, SLMO2 / RFU, ABCC4 / Fold change vs veh, ABCC4 / RFU, LOC101060439 /// RAP1B / Fold change vs veh, LOC101060439 /// RAP1B / RFU, RFX7 / Fold change vs veh, RFX7 / RFU, GTPBP10 / Fold change vs veh, GTPBP10 / RFU, CNEP1R1 / Fold change vs veh, CNEP1R1 / RFU, BIVM-ERCC5 /// ERCC5 / Fold change vs veh, BIVM-ERCC5 /// ERCC5 / RFU, ILF3 / Fold change vs veh, ILF3 / RFU 11762660_at / Fold change /veh 11762660_at / RFU VCAN (11757783_s_at) / Fold change /veh VCAN (11757783_s_at) / RFU DDX43 (11728927_at) / Fold change /veh DDX43 (11728927_at) / RFU KRT8 (11758188_x_at) / Fold change /veh KRT8 (11758188_x_at) / RFU NKD1 (11759106_at) / Fold change /veh NKD1 (11759106_at) / RFU SRD5A1 (11742802_a_at) / Fold change /veh SRD5A1 (11742802_a_at) / RFU TPSAB1 /// TPSB2 (11721975_s_at) / Fold change /veh TPSAB1 /// TPSB2 (11721975_s_at) / RFU GSTM3 (11746129_a_at) / Fold change /veh GSTM3 (11746129_a_at) / RFU IL23R (11737362_x_at) / Fold change /veh IL23R (11737362_x_at) / RFU TMEM51 (11727254_a_at) / Fold change /veh TMEM51 (11727254_a_at) / RFU PIWIL2 (11732686_x_at) / Fold change /veh PIWIL2 (11732686_x_at) / RFU ORM1 (11744905_x_at) / Fold change /veh ORM1 (11744905_x_at) / RFU CCDC152 (11743942_at) / Fold change /veh CCDC152 (11743942_at) / RFU ECM1 (11717891_a_at) / Fold change /veh ECM1 (11717891_a_at) / RFU IL23R (11748794_a_at) / Fold change /veh IL23R (11748794_a_at) / RFU TNFAIP8L3 (11732012_x_at) / Fold change /veh TNFAIP8L3 (11732012_x_at) / RFU MBOAT4 (11741988_at) / Fold change /veh MBOAT4 (11741988_at) / RFU 11764193_at / Fold change /veh 11764193_at / RFU TMEM53 (11763286_at) / Fold change /veh TMEM53 (11763286_at) / RFU MAGEB2 (11727129_at) / Fold change /veh MAGEB2 (11727129_at) / RFU TMEM200A (11744735_a_at) / Fold change /veh TMEM200A (11744735_a_at) / RFU CCDC152 (11751479_a_at) / Fold change /veh CCDC152 (11751479_a_at) / RFU FAM211A (11726209_a_at) / Fold change /veh FAM211A (11726209_a_at) / RFU RGS16 (11746705_a_at) / Fold change /veh RGS16 (11746705_a_at) / RFU VCAN (11755009_s_at) / Fold change /veh VCAN (11755009_s_at) / RFU RHOB (11743442_s_at) / Fold change /veh RHOB (11743442_s_at) / RFU RGS16 (11720943_a_at) / Fold change /veh RGS16 (11720943_a_at) / RFU RGS16 (11720944_at) / Fold change /veh RGS16 (11720944_at) / RFU, VPS4B / Fold change vs veh, VPS4B / RFU, CREB1 / Fold change vs veh, CREB1 / RFU, DNAJC13 / Fold change vs veh, DNAJC13 / RFU, GNAQ / Fold change vs veh, GNAQ / RFU, CDK5R1 / Fold change vs veh, CDK5R1 / RFU, ZRANB3 / Fold change vs veh, ZRANB3 / RFU, CUL4A / Fold change vs veh, CUL4A / RFU, CCNY / Fold change vs veh, CCNY / RFU, UFL1 / Fold change vs veh, UFL1 / RFU, COG3 / Fold change vs veh, COG3 / RFU, DIAPH2 / Fold change vs veh, DIAPH2 / RFU, SKA2 / Fold change vs veh, SKA2 / RFU, AFF3 / Fold change vs veh, AFF3 / RFU, LMF1 / Fold change vs veh, LMF1 / RFU, IPO11 / Fold change vs veh, IPO11 / RFU, DFFB / Fold change vs veh, DFFB / RFU, FOXP1 / Fold change vs veh, FOXP1 / RFU, CARD8 / Fold change vs veh, CARD8 / RFU, STRN3 / Fold change vs veh, STRN3 / RFU, ADK / Fold change vs veh, ADK / RFU, RASSF2 / Fold change vs veh, RASSF2 / RFU, WIPF1 / Fold change vs veh, WIPF1 / RFU, LARP1B / Fold change vs veh, LARP1B / RFU, RASA1 / Fold change vs veh, RASA1 / RFU, RB1 / Fold change vs veh, RB1 / RFU, PPFIA1 / Fold change vs veh, PPFIA1 / RFU, MAT2A / Fold change vs veh, MAT2A / RFU, CCT5 / Fold change vs veh, CCT5 / RFU, WDR92 / Fold change vs veh, WDR92 / RFU, CUX1 / Fold change vs veh, CUX1 / RFU, TTC7A / Fold change vs veh, TTC7A / RFU, TMEM135 / Fold change vs veh, TMEM135 / RFU, DEPTOR / Fold change vs veh, DEPTOR / RFU, CPM / Fold change vs veh, CPM / RFU, DNAJB6 / Fold change vs veh, DNAJB6 / RFU, CACNA2D3 / Fold change vs veh, CACNA2D3 / RFU, DTX4 / Fold change vs veh, DTX4 / RFU, TFCP2 / Fold change vs veh, TFCP2 / RFU, GMCL1 /// GMCL1P1 / Fold change vs veh, GMCL1 /// GMCL1P1 / RFU, AEBP2 / Fold change vs veh, AEBP2 / RFU, SNHG1 /// SNORD22 /// SNORD25 /// SNORD26 /// SNORD27 /// SNORD28 /// SNORD29 /// SNORD31 / Fold change vs veh, SNHG1 /// SNORD22 /// SNORD25 /// SNORD26 /// SNORD27 /// SNORD28 /// SNORD29 /// SNORD31 / Fold change (Aza/veh), C12orf56 (ProbeSet 11735607_a_at) / Fold change (ACY-1035/veh), C12orf56 (ProbeSet 11735607_a_at) / Fold change (Aza/veh), FGFR1OP (ProbeSet 11751329_s_at) / Fold change (ACY-1035/veh), FGFR1OP (ProbeSet 11751329_s_at) / Fold change (Aza/veh), VPS36 (ProbeSet 11739960_a_at) / Fold change (ACY-1035/veh), VPS36 (ProbeSet 11739960_a_at) / RFU SYPL1 (11715823_x_at) / Fold change /veh SYPL1 (11715823_x_at) / RFU IGFBP7 (11715501_s_at) / Fold change /veh IGFBP7 (11715501_s_at) / RFU REEP3 (11722064_at) / Fold change /veh REEP3 (11722064_at) / RFU IGLL1 (11728026_x_at) / Fold change /veh IGLL1 (11728026_x_at): dose or concentration left out as unconfirmed
Settings: MV-4-11 cells, 48 hours

## Nc1ncn([C@@H]2O[C@H](CO)[C@@H](O)[C@H]2O)c(=O)n1 [azacitidine]
  RFU VCAN (11757783_s_at): 10.94 RFU
